One experiment has as its target T1, Endothelin-1 receptor (Homo sapiens, UniProt P25101).
T1 sequence (P25101 whole entry): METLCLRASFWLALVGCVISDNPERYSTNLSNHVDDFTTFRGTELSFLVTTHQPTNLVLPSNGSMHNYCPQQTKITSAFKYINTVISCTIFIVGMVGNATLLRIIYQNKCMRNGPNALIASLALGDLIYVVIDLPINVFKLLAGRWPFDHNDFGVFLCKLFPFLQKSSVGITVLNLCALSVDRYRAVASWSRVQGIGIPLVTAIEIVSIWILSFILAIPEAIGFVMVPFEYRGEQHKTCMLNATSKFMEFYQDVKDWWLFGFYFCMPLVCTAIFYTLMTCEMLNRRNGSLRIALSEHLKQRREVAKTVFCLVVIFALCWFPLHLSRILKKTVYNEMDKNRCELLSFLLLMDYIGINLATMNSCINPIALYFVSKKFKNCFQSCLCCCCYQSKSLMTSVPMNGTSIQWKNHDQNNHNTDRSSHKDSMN
The experiment can be described thus: Displacement of [125I]ET1 from ETA receptor expressed in african green monkey CCL-81 cells monolayer. It is filed as cell-based.

Experiment [1] in a line: Selectivity ratio, ratio of IC50 for ETB receptor to IC50 for ETA receptor.
For experiment [2], the target named is T2, Endothelin receptor type B (Homo sapiens, UniProt P24530).
T2 sequence (P24530 whole entry): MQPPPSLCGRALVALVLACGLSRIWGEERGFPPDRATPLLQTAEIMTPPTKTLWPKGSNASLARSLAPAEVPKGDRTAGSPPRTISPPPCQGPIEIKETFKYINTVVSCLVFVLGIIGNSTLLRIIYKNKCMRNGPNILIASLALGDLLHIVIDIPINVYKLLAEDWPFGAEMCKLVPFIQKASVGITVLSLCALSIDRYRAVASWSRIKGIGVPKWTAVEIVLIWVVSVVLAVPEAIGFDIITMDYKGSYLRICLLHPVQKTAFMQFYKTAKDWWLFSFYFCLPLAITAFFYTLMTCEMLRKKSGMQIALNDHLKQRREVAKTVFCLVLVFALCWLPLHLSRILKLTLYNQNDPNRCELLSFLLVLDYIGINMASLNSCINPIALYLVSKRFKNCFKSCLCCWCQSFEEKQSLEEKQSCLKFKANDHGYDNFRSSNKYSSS
The experiment can be described thus: Displacement of [125I]ET1 from human ETB receptor expressed in membranes. (In general: Loss of bound radioactivity is the signal in a displacement assay; it reports binding, not function.)

The subject of experiment [3] is Hamster. Put plainly: Antiinflammatory activity against cigarette smoke-induced lung inflammation in hamster model assessed as reduction in bronchoalveolar lavage fluid leukocytes. It is filed as functional, organism-based. Conditions: Cricetinae.
The species entered for the next experiment is Mus musculus. The experiment can be described thus: Inhibition of LPS-induced preterm delivery in pregnant mouse model. It is filed as functional, organism-based.
Experiment [4] has as its system Hamster. The experiment can be described thus: Antiinflammatory activity against ET1-induced lung inflammation in hamster model assessed as reduction in bronchoalveolar lavage fluid leukocytes. It is filed as functional, organism-based. Conditions: Cricetinae.
Experiment [5] concerns Hamster. The experiment can be described thus: Antiinflammatory activity against LPS-induced lung inflammation in hamster model assessed as reduction in bronchoalveolar lavage fluid leukocytes. The class given is functional, organism-based. Conditions: Cricetinae.

Structures are written as SMILES. Active and inactive are the calls of the source. No cut-off for these calls is given here.

Turning to `CCc1cc2c(cc1Cn1c(C(=O)O)c(Cc3cccc(C(=O)O)c3)c(=O)c3cc(OC(C)C)ccc31)OCO2`, the IC50 on Endothelin-1 receptor came to 13.5 nM; in experiment [2], 677 nM. For the same molecule, in experiment [1], the Ratio IC50 is 50.

In the case of `CCCCOc1ccc2c(c1)c(=O)c(Cc1cccc(C(=O)O)c1)c(C(=O)O)n2Cc1cc2c(cc1CC)OCO2`, the IC50 at Endothelin-1 receptor is 1.44 nM; in experiment [2], 548 nM. The Ratio IC50 in experiment [1] is 381.

Consider `CCc1cc2c(cc1Cn1c(C(=O)O)c(Cc3cccc(C(=O)O)c3)c(=O)c3cc(OCC(=O)O)ccc31)OCO2`, for which the 50% inhibitory concentration (IC50) at Endothelin-1 receptor amounted to 285 nM; in experiment [2], 1450 nM. In experiment [1], the Ratio IC50 was 5.

On to `CCc1cc2c(cc1Cn1c(C(=O)O)c(Cc3cccc(C(=O)O)c3)c(=O)c3cc(OCC(C)C)ccc31)OCO2`, for which the figures for the 50% inhibitory concentration (IC50) (on Endothelin-1 receptor; in experiment [2]) were 6.3 nM and 1980 nM, respectively. In experiment [1], the Ratio IC50 was 315.

Turning to `CCc1cc2c(cc1Cn1c(C(=O)O)c(Cc3cccc(C(=O)O)c3)c(=O)c3cc(OCCCO)ccc31)OCO2`, the IC50 at Endothelin-1 receptor was found to be 7.4 nM; in experiment [2], 4390 nM. The Ratio IC50 in experiment [1] was found to be 593.

On Endothelin-1 receptor, `CC(C)C[C@@H]1NC(=O)[C@@H](C(C)C)NC(=O)[C@@H]2CCCN2C(=O)C(CC(=O)O)NC(=O)[C@@H](Cc2c[nH]c3ccccc23)NC1=O` (single isomer, unassigned) [BQ-123] yielded an IC50 of 24.8 nM.

`CCc1cc2c(cc1Cn1c(C(=O)O)c(Cc3cccc(C(=O)O)c3)c(=O)c3ccccc31)OCO2`: the half-maximal inhibitory concentration (IC50) was determined as 0.69 nM at Endothelin-1 receptor and 571 nM in experiment [2]. In addition, the Ratio IC50 in experiment [1] stood at 827.

As for `CCOc1ccc2c(c1)c(=O)c(Cc1cccc(C(=O)O)c1)c(C(=O)O)n2Cc1cc2c(cc1CC)OCO2`, the 50% inhibitory concentration (IC50) is 6.6 nM on Endothelin-1 receptor and 3120 nM in experiment [2]. Further, the Ratio IC50 in experiment [1] is 473.

As to `CCc1cc2c(cc1Cn1c(C(=O)O)c(Cc3cccc(C(=O)O)c3)c(=O)c3cc(OCOC)ccc31)OCO2`, the IC50 was 24.4 nM on Endothelin-1 receptor and 1030 nM in experiment [2]. In addition, in experiment [1], the Ratio IC50 was 43.

Regarding `CCc1cc2c(cc1Cn1c(C(=O)O)c(Cc3cccc(C(=O)O)c3)c(=O)c3cc(OCC4CC4)ccc31)OCO2`, on Endothelin-1 receptor, the IC50 amounted to 116 nM.

The molecule `CCCCCOc1ccc2c(c1)c(=O)c(Cc1cccc(C(=O)O)c1)c(C(=O)O)n2Cc1cc2c(cc1CC)OCO2` displayed a half-inhibitory concentration (IC50) on Endothelin-1 receptor of 610 nM.

On to `CCCOc1ccc2c(c1)c(=O)c(Cc1cccc(C(=O)O)c1)c(C(=O)O)n2Cc1cc2c(cc1CC)OCO2`, for which the IC50 on Endothelin-1 receptor is 0.11 nM; in experiment [2], 913 nM. Moreover, the Ratio IC50 in experiment [1] amounted to 8300.

Regarding `C=CCOc1ccc2c(c1)c(=O)c(Cc1cccc(C(=O)O)c1)c(C(=O)O)n2Cc1cc2c(cc1CC)OCO2`, the IC50 on Endothelin-1 receptor is 38.1 nM; in experiment [2], 1130 nM. In experiment [1], the Ratio IC50 is 30.

For the molecule `CCc1cc2c(cc1Cn1c(C(=O)O)c(Cc3cccc(C(=O)O)c3)c(=O)c3cc(OC(C)CC)ccc31)OCO2` (stereo unspecified), the IC50 on Endothelin-1 receptor worked out at 9.9 nM.

As to `CCc1cc2c(cc1Cn1c(C(=O)O)c(Cc3cccc(C(=O)O)c3)c(=O)c3cc(O)ccc31)OCO2`, the inhibition entry in the experiment with Hamster [3], in the experiment listed under Mus musculus, in the experiment with Hamster [4] and with Hamster [5] was “Active” in each case. For the same molecule, the IC50 turned out to be 38.9 nM on Endothelin-1 receptor and 15600 nM in experiment [2]. Also, the Ratio IC50 in experiment [1] is 399.

By IC50 is commonly meant the concentration needed to halve the response being measured.

Values taken from ChEMBL document CHEMBL1268959, “Synthesis and pharmacological activity of 1,3,6-trisubstituted-4-oxo-1,4-dihydroquinoline-2-carboxylic acids as selective ET(A) antagonists” (Bioorg Med Chem Lett, 2010).
